Test results from patent publication US11806342B2, “Diiodohydroxyquinoline for the treatment of clostridium difficile infection” (Purdue Research Foundation, priority 2019, dated 2023).
In brackets after ≈: the same amount, converted by molar mass.

Assays:
Format in all cases: cell-based, Clostridium difficile
[1] = tested on: C. difficile ATCC BAA-1870; experiment: Spore inhibition assay; details: C. difficile ATCC BAA-1870, ½×MIC or 1×MIC, five days
Protocol: (§1) The spore inhibition assay was performed as described in previous reports to investigate the effect of diiodohydroxyquinoline on C. difficile spore formation. Briefly, […], the bacterial suspension was split into microcentrifuge tubes and drugs were added (in triplicates) at concentrations equal to ½×MIC or 1×MIC. Tubes were then, incubated anaerobically for five days at 37° C. Thereafter, an aliquot from each tube was diluted and plated on BHIS agar plates supplemented with 0.1% taurocholic acid, to count the total bacterial counts (vegetative bacteria+spores). The remaining solution was centrifuged, and the pellet was suspended in PBS, stored overnight at 4° C., and subsequently shock-heated at 70° C. for 30 minutes to kill the vegetative cells. The resulting solution was serially diluted and plated to determine the heat-resistant spore counts. Spore inhibition assay was performed as described in previous reports to investigate the effect of DIHQ on C. difficile spore formation. Briefly, log-phase cultures of C. difficile strains (ATCC BAA-1870, ATCC 43255, and NR-49277) were diluted in BHIS to an initial density of ˜10^6 CFU/mL. Afterwards, the bacterial suspension was split in small tubes and the drugs were added (in triplicates) at concentrations equal to ½×MIC or 1×MIC. Tubes were then incubated anaerobically for 5 days at 37° C. After that, an aliquot from each tube was diluted and plated on BHIS agar plates supplemented with 0.1% taurocholic acid, to count the total bacterial count (vegetative bacteria+spores). The remaining solution was centrifuged, and the pellet was suspended in PBS and stored overnight at 4° C. then shock heated at 70° C. for 30 minutes to kill the vegetative cells. The resulting solution was serially diluted and plated to determine the heat-resistant spore counts.

[2] = tested on: C. difficile NR-49277; experiment: Spore inhibition assay; details: C. difficile NR-49277, ½×MIC or 1×MIC, five days
Protocol: as §1

[3] = tested on: C. difficile ATCC 43255; experiment: Spore inhibition assay; details: C. difficile ATCC 43255, ½×MIC or 1×MIC, five days
Protocol: as §1

[4] = tested on: C. difficile I13; experiment: MIC and MBC, broth microdilution; details: Clostridioides difficile, I13
Protocol: (§2) Antibacterial activity of Diiodohydroxyquinoline against a wide panel of Clostridium difficile strains. […] MIC50 and MIC90 are the minimum concentration of each agent that inhibited growth of 50% and 90% of the tested isolates, respectively. The minimum bactericidal concentration (MBC) of these drugs was tested by plating 5 μL from wells with no growth onto BHIS agar plates. The MBC was categorized as the lowest concentration that reduced bacterial growth by 99.9% MIC50 and MIC90 are the minimum concentration of each agent that inhibited the growth of 50% and 90% of the tested isolates, respectively. The minimum bactericidal concentration (MBC) of these drugs was tested by plating 5 μL from wells with no growth onto BHIS agar plates. The MBC was categorized as the lowest concentration that reduced bacterial growth by 99.9% [29-31].

[5] = tested on: C. difficile I9; experiment: MIC and MBC, broth microdilution; details: Clostridioides difficile, I9
Protocol: as §2

[6] = tested on: C. difficile P6; experiment: MIC and MBC, broth microdilution; details: Clostridioides difficile, P6
Protocol: as §2

[7] = tested on: C. difficile ATCC 1801; experiment: MIC and MBC, broth microdilution; details: Clostridioides difficile, ATCC1801
Protocol: as §2

[8] = tested on: C. difficile NR-49285; experiment: MIC and MBC, broth microdilution; details: Clostridioides difficile, NR49285
Protocol: as §2

[9] = tested on: C. difficile HM-745; experiment: MIC and MBC, broth microdilution; details: Clostridioides difficile, HM745
Protocol: as §2

[10] = tested on: C. difficile P15; experiment: MIC and MBC, broth microdilution; details: Clostridioides difficile, P15
Protocol: as §2

[11] = tested on: C. difficile P19; experiment: MIC and MBC, broth microdilution; details: Clostridioides difficile, P19
Protocol: as §2

[12] = tested on: C. difficile P20; experiment: MIC and MBC, broth microdilution; details: Clostridioides difficile, P20
Protocol: as §2

[13] = tested on: C. difficile P5; experiment: MIC and MBC, broth microdilution; details: Clostridioides difficile, P5
Protocol: as §2

[14] = tested on: C. difficile I6; experiment: MIC and MBC, broth microdilution; details: Clostridioides difficile, I6
Protocol: as §2

[15] = tested on: C. difficile I10; experiment: MIC and MBC, broth microdilution; details: Clostridioides difficile, I10
Protocol: as §2

[16] = tested on: C. difficile P3; experiment: MIC and MBC, broth microdilution; details: Clostridioides difficile, P3
Protocol: as §2

[17] = tested on: C. difficile NR-49288; experiment: MIC and MBC, broth microdilution; details: Clostridioides difficile, NR49288
Protocol: as §2

[18] = tested on: C. difficile I11; experiment: MIC and MBC, broth microdilution; details: Clostridioides difficile, I11
Protocol: as §2

[19] = tested on: C. difficile P30; experiment: MIC and MBC, broth microdilution; details: Clostridioides difficile, P30
Protocol: as §2

[20] = tested on: C. difficile ATCC 43255; experiment: MIC and MBC, broth microdilution; details: Clostridioides difficile, ATCC43255
Protocol: as §2

[21] = tested on: C. difficile NR-49278; experiment: MIC and MBC, broth microdilution; details: Clostridioides difficile, NR49278
Protocol: as §2

CN[C@H](CC(C)C)C(=O)N[C@H]1C(=O)N[C@@H](CC(N)=O)C(=O)N[C@H]2C(=O)N[C@H]3C(=O)N[C@H](C(=O)N[C@H](C(=O)O)c4cc(O)cc(O)c4-c4cc3ccc4O)[C@H](O)c3ccc(c(Cl)c3)Oc3cc2cc(c3O[C@@H]2O[C@H](CO)[C@@H](O)[C@H](O)[C@H]2O[C@H]2C[C@](C)(N)[C@H](O)[C@H](C)O2)Oc2ccc(cc2Cl)[C@H]1O [Vancomycin, vancomycin]
reduction in spore count (in words) [1]: almost no reduction
reduction in spore count (in words) [2]: almost no reduction
reduction in spore count (in words) [3]: almost no reduction
MBC [4]: 1 mg/L (≈ 0.69 µM)
MIC [4]: 1 mg/L (≈ 0.69 µM)
MBC [5]: 0.5 mg/L (≈ 0.345 µM)
MIC [5]: 0.5 mg/L (≈ 0.345 µM)
MBC [6]: 1 mg/L (≈ 0.69 µM)
MIC [6]: 1 mg/L (≈ 0.69 µM)
MBC [7]: 1 mg/L (≈ 0.69 µM)
MIC [7]: 1 mg/L (≈ 0.69 µM)
MBC [8]: 0.5 mg/L (≈ 0.345 µM)
MIC [8]: 0.5 mg/L (≈ 0.345 µM)
MBC [9]: 1 mg/L (≈ 0.69 µM)
MIC [9]: 1 mg/L (≈ 0.69 µM)
MBC [10]: 1 mg/L (≈ 0.69 µM)
MIC [10]: 1 mg/L (≈ 0.69 µM)
MBC [11]: 1 mg/L (≈ 0.69 µM)
MIC [11]: 1 mg/L (≈ 0.69 µM)
MBC [12]: 1 mg/L (≈ 0.69 µM)
MIC [12]: 1 mg/L (≈ 0.69 µM)
MBC [13]: 0.5 mg/L (≈ 0.345 µM)
MIC [13]: 0.5 mg/L (≈ 0.345 µM)
MBC [14]: 0.5 mg/L (≈ 0.345 µM)
MIC [14]: 0.5 mg/L (≈ 0.345 µM)
MBC [15]: 1 mg/L (≈ 0.69 µM)
MIC [15]: 0.5 mg/L (≈ 0.345 µM)
MBC [16]: 1 mg/L (≈ 0.69 µM)
MIC [16]: 1 mg/L (≈ 0.69 µM)
MBC [17]: 1 mg/L (≈ 0.69 µM)
MIC [17]: 0.5 mg/L (≈ 0.345 µM)
MBC [18]: 1 mg/L (≈ 0.69 µM)
MIC [18]: 1 mg/L (≈ 0.69 µM)
MBC [19]: 0.5 mg/L (≈ 0.345 µM)
MIC [19]: 0.5 mg/L (≈ 0.345 µM)
MBC [20]: 1 mg/L (≈ 0.69 µM)
MIC [20]: 1 mg/L (≈ 0.69 µM)
MBC [21]: 0.5 mg/L (≈ 0.345 µM)
MIC [21]: 0.25 mg/L (≈ 0.173 µM)
